In US7375124B2, “Use of α-phenylthiocarboxylic and α-phenyloxycarboxylic acids with serum-glucose-lowering and serum-lipid-lowering activity” (Sigma-Tau Industrie Farmaceutiche Riunite S.p.A., priority 2002, dated 2008):
Read-outs that look alike come from different tables or passages of the source. One block for each compound: values may come before it.

Tests used:
[1] = system: C57BL/KsJ db/db mouse; conditions: in vivo
Text: (§1) Plasma levels of glucose, insulin, triglycerides, cholesterol, free fatty acids and urea were checked for a well-matched distribution of mice in the treatment groups.
(§2) At the start of treatment the body weights of the mice were checked and arrangements were made for monitoring water and feed consumption.
(§3) In the course of the experiment, serum glucose levels, oral glucose tolerance test (OGTT) findings, a number of lipid status parameters and weight gain were monitored.

[2] = system: C57BL/KsJ db/db mouse; test: Antidiabetic and serum-lipid-lowering activity in the db/db mouse (Experiments I and II); conditions: for Variation % (AUC glucose at OGTT) vs control / AUC glucose at OGTT: OGTT glucose 3 g/kg; for AUC glucose at OGTT / Glucose (plasma) / Fructosamine (plasma) / HDL-choles. (plasma) / Triglycerides (plasma) / Glucose / Final b.w. / Initial b.w.: mean ± S.E.; for Glucose (plasma): postabsorption (fasting 9 a.m. to 4.30 p.m.); for Glucose (plasma) / Variation % (fructosamine) vs control / Variation % (plasma glucose) vs control / Fructosamine (plasma) / HDL-choles. (plasma) / Triglycerides (plasma): 7.5 hours after last treatment; for Glucose: blood; for Final b.w. / Initial b.w.: postabsorption condition; for Variation % (initial b.w.) vs control / Initial b.w.: initial body weight
Text: as §1, §2, §3

[3] = molecular target: T1, mPPARαLBD/Gal4DBD (Mus musculus, UniProt P23204); test: Transactivation assay mediated by mPPARαLBD/Gal4DBD in COS-7 cells (CAT reporter); type: cell-based
T1 construct: expressed in transfected cells; host or cells: COS-7 (monkey kidney fibroblasts)
T1 sequence (P23204 239-466 limits assumed): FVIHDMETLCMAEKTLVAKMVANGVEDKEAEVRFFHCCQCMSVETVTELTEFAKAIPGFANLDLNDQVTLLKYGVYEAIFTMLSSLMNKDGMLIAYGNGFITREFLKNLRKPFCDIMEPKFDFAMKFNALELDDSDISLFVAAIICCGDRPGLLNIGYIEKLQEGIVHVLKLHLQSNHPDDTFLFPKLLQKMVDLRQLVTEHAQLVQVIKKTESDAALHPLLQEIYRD
Text: In this model a transactivation assay is used in which the expression vector mPPARαLBD/Gal4 DBD allows the synthesis by the transfected cell of a chimeric protein, in which the ligand binding domain (LBD) of PPARα is fused with the DNA binding domain (DBD) of the transcription factor GAL4 of yeast [Luckow B. et al., Nucleic Acids Res. 15, 5490 (1987)]. Simultaneously, a plasmid (pG5CAT) is transfected which contains 5 copies of the high-affinity binding site for GAL4 (also called UAS, upstream activating sequence), upstream of the viral promoter E1b fused with the CAT reporter gene [Moya-Camarena S. Y. et al., J. Lipid Res. 40 (8), 1426-33 (1999)]. This model eliminates interference by possible endogenous receptors.
This is due to the fact that the activation of E1b and the production of CAT will occur exclusively thanks to the interaction of GAL4 DBD with its own response element (UAS). Since the transcription factor GAL4 is not expressed in […] cells, transactivation of the reporter gene can take place only when, as a result of the interaction of a ligand with the LBD of PPARα, the chimeric protein PPARα/GAL4 recognises the UAS sequence on the plasmid pG5CAT. Together with the expression vector and the reporter vector the cells were also transfected with the plasmid pCH110 which provides the internal control for the efficiency of transfection and the normalisation of the results.
A monkey kidney fibroblast cell line (COS-7) was used [Elbrecht A. et al., J. Biol. Chem. 274 (12), 7913-22 (1999)]. The cells were co-transfected with the reporter vector, the expression plasmid coding for the fusion protein Gal4 DBD/PPARαLBD and the control vector pCH110. The cells were exposed to increasing concentrations of the study compounds and CAT activity was evaluated. Untreated cells were used as controls.
Monkey kidney fibroblasts (COS-7) were cultured according to the usual cell culture techniques, at 37° C. in a 5% v/v carbon dioxide atmosphere using as the growth medium DMEM (Dulbecco's modified Eagle's medium) modified with 3.7 g/l of sodium bicarbonate, 4 mM L-glutamine, 4.5 g/l of glucose, 1 mM sodium pyruvate and 10% v/v of foetal bovine serum, in the presence of streptomycin 100 μg/ml and penicillin 100 U/ml final.
The cells were co-transfected using the transfection reagent FuGENE6 (Roche), consisting of a defined mixture of lipids capable of complexing the DNA and of transporting it into the cells. Twenty-four hours prior to transfection the cells were plated at a density of 1.2×10^5 cells/well in 12-well plates and maintained at 37° C. in a 5% v/v CO2 atmosphere. […] Briefly, the transfection mixture containing 0.8 μg of the expression vector, 1.6 μg of the reporter vector, 0.8 μg of the control vector and 9 μl of the FuGENE6 reagent per well was added directly to the cells in the presence of culture medium devoid of serum. After 5 hours, the transfection medium was replaced by 1 ml of culture medium complete with serum and antibiotics in the presence or absence of the molecules to be tested at 3 different concentrations (2, 20 and 100 μM). Wy-14,643 (2 μM), a known ligand of PPARα, was used as the positive reference compound.
After 48 hours' incubation at 37° C. in a 5% v/v CO2 atmosphere, the cells were washed twice with 1 ml of phosphate buffer (PBS) and removed mechanically from the wells in TEN buffer (Tris[hydroxymethyl]aminomethane 10 mM pH 8, ethylenediamine-tetraacetic acid 1 mM pH 8, sodium chloride 0.1 M). After centrifuging for 3 minutes at 1000 rpm, the cells were resuspended in 65 μl of lysis buffer (Tris-HCl 0.25 M, pH 8) and then lysed thanks to three rapid freeze-thaw cycles. The insoluble cellular materials (debris) were removed by centrifuging at 15,000 rpm for 15 minutes at 4° C., and the supernatant was recovered and used for the CAT and β-galactosidase activity assays. […]

[4] = Experiment I, after 12 days' treatment, feeding state, approx. 15 hours after last treatment
[5] = Experiment I, after 12 days' treatment, postabsorption, 8 hours after last treatment
[6] = Experiment I, after 18 days' treatment
[7] = Experiment I, after 18 days' treatment, fasting 18 hours, 5 hours after last treatment
[8] = Experiment I, after 18 days' treatment, fasting 18 hours, 6 hours after last treatment
[9] = Experiment I, after 25 days' treatment
[10] = Experiment I, after 25 days' treatment, postabsorption
[11] = Experiment I, after 12 days' treatment, postabsorption (fasting 9 a.m. to 5 p.m.), 8 hours after last treatment
[12] = Experiment I, db/db mice, oral twice daily, after 12 days' treatment, feeding state, approx. 15 hours after last treatment
[13] = Experiment I, final body weight after 25 days' treatment
[14] = Experiment II, after 11 days' treatment, fasting 18 hours, 5 hours after last treatment
[15] = Experiment II, after 12 days' treatment
[16] = Experiment II, after 12 days' treatment, postabsorption

Compound: CC(C)(Oc1ccc(CCNC(=O)c2ccc(Cl)cc2)cc1)C(=O)O [Bezafibrate, bezafibrate, reference compound]
Final b.w. [1]: 35.2 ± 1.3 g | Initial b.w. [1]: 33.7 ± 0.7 g | Variation % (final b.w.) vs control [1]: +24% | Variation % (initial b.w.) vs control [1]: +6% | Variation % (glucose) vs control [2, 4]: +3% | Variation % (glucose) vs control [2, 5]: +2% | Variation % (AUC glucose at OGTT) vs control [2, 6]: −13% | AUC glucose at OGTT [2, 7]: 44476 ± 1827 a.u. | Variation % (glucose) vs control [2, 8]: −13% | Variation % (HDL-cholesterol) vs control [2, 9]: +14% | Variation % (triglycerides) vs control [2, 9]: −7% | Glucose (plasma) [2, 9]: 536 ± 22 mg/dL | Variation % (fructosamine) vs control [2, 10]: +26% | Variation % (plasma glucose) vs control [2, 10]: +18% | Fructosamine (plasma) [2, 10]: 1.01 ± 0.04Δ mM | HDL-choles. (plasma) [2, 10]: 93.8 ± 3.8 mg/dL | Triglycerides (plasma) [2, 10]: 88.3 ± 12.7 mg/dL | Glucose [2, 11]: 421 ± 30 mg/dL | Glucose [2, 8]: 298 ± 21 mg/dL | Glucose [2, 12]: 503 ± 21 mg/dL

Compound: COC(=O)C(C)(C)Sc1cccc(OCCc2ccc(Cl)cc2)c1 [Example 1, methyl 2-[3-[2-(4-chlorophenyl)ethoxy]phenylthio]isobutyrate]
Activation of reporter gene CAT as a percentage of the reference compound (WY-14,643 2 μM = 100%) ([3]; 2 μM): 44.9% | Activation of reporter gene CAT as a percentage of the reference compound (WY-14,643 2 μM = 100%) ([3]; 20 μM): 129.9% | Activation of reporter gene CAT as a percentage of the reference compound (WY-14,643 2 μM = 100%) ([3]; 100 μM): 232.1% | Variation % (glucose) vs control [2, 4]: −38% | Variation % (glucose) vs control [2, 5]: −48% | Variation % (AUC glucose at OGTT) vs control [2, 6]: −52% | AUC glucose at OGTT [2, 7]: 24527 ± 889 a.u. | Variation % (glucose) vs control [2, 8]: −58% | Variation % (HDL-cholesterol) vs control [2, 9]: +20% | Variation % (final b.w.) vs control [2, 9]: +27% | Variation % (triglycerides) vs control [2, 9]: −53% | Glucose (plasma) [2, 9]: 206 ± 8Δ mg/dl | Variation % (fructosamine) vs control [2, 10]: −49% | Variation % (plasma glucose) vs control [2, 10]: −55% | Fructosamine (plasma) [2, 10]: 0.41 ± 0.04 mM | HDL-choles. (plasma) [2, 10]: 98.0 ± 3.5[…] mg/dl | Triglycerides (plasma) [2, 10]: 45.3 ± 2.3 mg/dL | Glucose [2, 11]: 216 ± 16 mg/dL | Glucose [2, 8]: 144 ± 3Δ mg/dl | Glucose [2, 12]: 303 ± 16 mg/dL | Final b.w. [2, 13]: 35.9 ± 0.6 g | Variation % (initial b.w.) vs control ([2]; Experiment I): +2% | Initial b.w. ([2]; Experiment I): 32.3 ± 0.3 g | Variation % (glucose) vs control ([2]; Experiment II, after 9 days' treatment, postabsorption, 8 hours after last treatment): −36% | Variation % (AUC glucose at OGTT) vs control ([2]; Experiment II, after 11 days' treatment): −40% | AUC glucose at OGTT [2, 14]: 25929 ± 1299 a.u. | Variation % (glucose) vs control [2, 14]: −36% | Variation % (HDL-cholesterol) vs control [2, 15]: +43% | Variation % (final b.w.) vs control [2, 15]: +7% | Variation % (triglycerides) vs control [2, 15]: −48% | Glucose (plasma) [2, 15]: 356 ± 30 mg/dL | Variation % (plasma glucose) vs control [2, 16]: −38% | HDL-choles. (plasma) [2, 16]: 123.7 ± 1.9 mg/dL | Triglycerides (plasma) [2, 16]: 45.1 ± 1.4 mg/dL | Glucose ([2]; Experiment II, after 9 days' treatment, postabsorption (fasting 9 a.m. to 5 p.m.), 8 hours after last treatment): 223 ± 20Δ mg/dl | Glucose [2, 14]: 158 ± 7 mg/dL | Final b.w. ([2]; Experiment II, final body weight after 12 days' treatment): 40.3 ± 0.8[…] g | Variation % (initial b.w.) vs control ([2]; Experiment II): −1% | Initial b.w. ([2]; Experiment II): 38.6 ± 0.4 g

Compound: COC(=O)C(C)(C)Sc1cccc(OCCc2ccc(Cl)cc2Cl)c1 [Example 4, methyl 2-[3-(2-(2,4-dichlorophenyl)ethoxy)phenylthio]isobutyrate]
Activation of reporter gene CAT as a percentage of the reference compound (WY-14,643 2 μM = 100%) ([3]; 2 μM): 113.1% | Activation of reporter gene CAT as a percentage of the reference compound (WY-14,643 2 μM = 100%) ([3]; 20 μM): 284.9% | Activation of reporter gene CAT as a percentage of the reference compound (WY-14,643 2 μM = 100%) ([3]; 100 μM): 421%

Continued, in another order:

melting point: 73 to 74 °C
Compound: COC(=O)C(C)(C)Sc1ccc(OCCc2ccc(Cl)cc2Cl)cc1 [Example 5, methyl 2-[4-(2-(2,4-dichlorophenyl)ethoxy)phenylthio]isobutyrate]

Activation of reporter gene CAT as a percentage of the reference compound (WY-14,643 2 μM = 100%) ([3]; 2 μM): 98.1% | Activation of reporter gene CAT as a percentage of the reference compound (WY-14,643 2 μM = 100%) ([3]; 20 μM): 360% | Activation of reporter gene CAT as a percentage of the reference compound (WY-14,643 2 μM = 100%) ([3]; 100 μM): 462.7%
Compound: COC(=O)C(C)(C)Sc1cccc(OCCc2ccc3ccccc3c2)c1 [Example 10, methyl 2-[3-[2-(2-naphthyl)ethoxy]phenylthio]isobutyrato]

Final b.w. [1]: 34.5 ± 1.0 g | Initial b.w. [1]: 33.3 ± 0.7 g | Variation % (final b.w.) vs control [1]: +22% | Variation % (initial b.w.) vs control [1]: +5%
Compound: CC(C)OC(=O)C(C)(C)Oc1ccc(C(=O)c2ccc(Cl)cc2)cc1 [Fenofibrate, fenofibrate, reference compound]
Variation % (glucose) vs control [2, 4]: −4% | Variation % (glucose) vs control [2, 5]: −1% | Variation % (AUC glucose at OGTT) vs control [2, 6]: −12% | AUC glucose at OGTT [2, 7]: 45192 ± 1546 a.u. | Variation % (glucose) vs control [2, 8]: +12% | Variation % (HDL-cholesterol) vs control [2, 9]: +18% | Variation % (triglycerides) vs control [2, 9]: −30% | Glucose (plasma) [2, 9]: 553 ± 30 mg/dL | Variation % (fructosamine) vs control [2, 10]: +15% | Variation % (plasma glucose) vs control [2, 10]: +21% | Fructosamine (plasma) [2, 10]: 0.92 ± 0.02Δ mM | HDL-choles. (plasma) [2, 10]: 96.4 ± 4.2 mg/dL | Triglycerides (plasma) [2, 10]: 66.5 ± 3.5Δ mg/dl | Glucose [2, 11]: 409 ± 11 mg/dL | Glucose [2, 8]: 384 ± 20 mg/dL | Glucose [2, 12]: 466 ± 8 mg/dL

Variation % (final b.w.) vs control [1]: +49% | Variation % (initial b.w.) vs control [1]: +3%
Compound: CN(CCOc1ccc(CC2SC(=O)NC2=O)cc1)c1ccccn1 (stereo not drawn) [Rosiglitazone, rosiglitazone, reference compound]
Variation % (glucose) vs control [2, 4]: −25% | Variation % (glucose) vs control [2, 8]: −35% | Variation % (HDL-cholesterol) vs control [2, 9]: −20% | Variation % (triglycerides) vs control [2, 9]: −54% | Glucose [2, 8]: 225 ± 27▪ mg/dl | Glucose [2, 12]: 365 ± 64 mg/dL | Final b.w. [2, 13]: 42.1 ± 2.5Δ g | Initial b.w. ([2]; Experiment I): 32.6 ± 1.4 g
